Tested on: MDA-MB-231 and U138 MG cells
Test: Laser scanning confocal fluorescence microscopy of cellular uptake
Assay type: cell-based, human
Details: for Cy5.5 fluorescence intensity in MDA-MB-231 cells versus U138MG cells: 0.3 μM Cy5.5 equivalent, 1 h, 37 °C, confocal microscopy; for effect of C225 preincubation on cellular fluorescence: C225 preincubation 12 h, then agent for 1 h, MDA-MB-231 and U138 MG cells
Procedure: To investigate the intracellular distribution of EBP-Gd-DO3A in cells with different levels of EGFR expression, MDA-MB-231 and U138 MG cells were seeded on glass coverslips in 24-well plates (5 × 10^4 cells per well). After 24 h, the cells were washed twice with serum-free medium, treated with 0.3 μM Cy5.5 or Cy5.5-EBP-Gd-DO3A (concentration of equivalent Cy5.5), and incubated at 37 °C for 1 h. Following incubation, cells were washed three times with PBS (pH 7.4) to remove unbound probes and were stained with 4′,6-diamidino-2-phenylindole (DAPI) (Sigma-Aldrich) for 10 min and examined with a laser scanning confocal fluorescence microscope (Leica, TCS SP8) with a 40 × objective lens. The fluorescence signals from Cy5.5 and its conjugates were visualized at λex = 680 nm and λem = 710 nm, while the fluorescence signals of DAPI (nucleus) were performed at λex = 350 nm and λem = 460 nm. The laser power, illumination intensity, and exposure time were kept identical across all samples to ensure quantitative comparability. To further characterize the selective cellular uptake of the conjugate via the EGFR-mediated pathway, the cells were preincubated with C225 for 12 h at 37 °C before probe treatment. Following the removal of the pretreatment solution, the cells were washed with serum-free medium, treated with Cy5.5 or Cy5.5-EBP-Gd-DO3A conjugate, and incubated at 37 °C as described above. The cells were stained with DAPI and visualized using the laser scanning confocal fluorescence microscope, and the fluorescent intensity of the cells was analyzed using Image J.

Substance	Cy5.5 fluorescence intensity in MDA-MB-231 cells versus U138MG cells	effect of C225 preincubation on cellular fluorescence
CMYIEALDKYAC [Cy5.5-EBP-Gd-DO3A, Cy5.5-labelled EBP-Gd-DO3A conjugate for fluorescence microscopy]	much stronger	inhibited
Cy5.5 [reference compound]	the same	did not affect
